{"source": "patent US20160166581A1", "about": "(priority 2014, published 2016)", "key": {"[1]": {"test_system": "cats with stage 3 and 4 renal disease", "assay": "Feline renal disease, serum creatinine pre and post treatment", "type": "in vivo, cat", "design": "Serum creatinine post treatment: unit not given here", "description": "This example measures feline renal disease. […] The average weight of the domestic cats was approximately 6 lbs."}, "[2]": {"test_system": "horses with black walnut extract induced laminitis", "assay": "Black walnut extract induced laminitis, treatment with donepezil", "type": "in vivo, horse", "procedure": "Three domestic horses, average age 26, are corralled in close proximity to a Black Walnut tree with exposed roots and debris from black walnuts shells, including leaves. The weight of the horses is 1100-1200 lbs. Horses are quartered in a 24×36 square foot area with a Black Walnut tree within the confined area.\nThe horses are evaluated continuously after 6 hours of exposure to remove them from exposure to the black walnut extract once symptoms occur.\nSubsequent doses are 50 mg on Day #3-7. Horses are given Timothy hay and water, but no other medicinal or mechanical interventions.\nThe same 3 horses are used in similar exposure design, as in the original experiment to induce laminitis. […] The dose is tapered to 50 mg orally on Days #3 through #7."}, "[3]": {"test_system": "feline diabetic subjects", "assay": "Glucose Tolerance Test/Felines (ipGTT)", "type": "in vivo, cat", "procedure": "Glucose Tolerance Test/Felines. Four feline diabetic subjects (male, age 5-7 years) with newly diagnosed DM (diabetes). […] These 4 cats are subjected to intraperitoneal injection of 2 grams/kg glucose. (ipGTT). Blood glucose levels are obtained via Cephalic iv. catheter at 30 and 60 minutes."}, "[4]": {"test_system": "obese domestic cats with diabetes", "procedure": "Five obese domestic cats with diabetes (average weight 14.2 lbs.) are on glargine insulin for glycemic control. […] All cats are being treated with glargine insulin in bid dosing schedule. […] Over a 14 day period morning blood glucose levels (prior to feeding) are recorded."}, "[5]": {"settings": "after repeat exposure and treatment"}, "[6]": {"settings": "first exposure, 3 horses, 100 mg orally Day 1-2, 50 mg Day 3-7"}, "[7]": {"settings": "repeat exposure, same 3 horses, 100 mg Day 1-2, 50 mg Days 3-7"}, "[8]": {"settings": "4 cats, 1.25 mg daily for 4 weeks"}, "[9]": {"settings": "individual cats #1-#4, donepezil 1.25 mg daily for 4 weeks"}, "[10]": {"settings": "individual cats #1-#4, donepezil 1.25 mg daily for 4 weeks, 2 gm/kg glucose ip"}}, "note": "“And” between values parts separate entries of the source, which are not always exact repeats. Equal values may be shown once.", "data": [{"smiles": "COc1cc2c(cc1OC)C(=O)C(CC1CCN(Cc3ccccc3)CC1)C2", "note": "(centres unmarked) [donepezil]", "values": [{"measurement": "Improvement of creatinine in six cats", "setting": "[1]; donepezil 2.5 mg daily over 4 week period", "result": "approximately 56%"}, {"measurement": "Serum creatinine post treatment", "setting": "[1]; individual cats 1-6, stage 3 or 4 renal disease, donepezil 2.5 mg daily for 4 weeks", "result": "1.8 and 2.6 and 2.0 and 1.9 and 2.5 and 2.3"}, {"measurement": "Decrease of serum creatinine post versus pre treatment", "setting": "[1]; individual cats 1-6, donepezil 2.5 mg daily for 4 weeks", "result": "49% and 53% and 45% and 60% and 65% and 62%"}, {"measurement": "Gait (horse movements)", "setting": "[2]; [5]", "result": "no abnormalities"}, {"measurement": "Lasting lameness or constitutional symptoms", "setting": "[2]; [5]", "result": "No observable lasting lameness or constitutional symptoms"}, {"measurement": "Systemic symptoms after day #7", "setting": "[2]; first exposure, 3 horses", "result": "No systemic symptoms are noted"}, {"measurement": "All subjects appear normal by", "setting": "[2]; [6]", "result": "≤ 7", "unit": "days"}, {"measurement": "Normal activity noted as early as", "setting": "[2]; [6]", "result": 5, "unit": "days"}, {"measurement": "Warmth, posturing and trembling resolved by", "setting": "[2]; [6]", "result": "≤ 3", "unit": "days"}, {"measurement": "Resolution of symptoms and normal movements completed by", "setting": "[2]; [7]", "result": "≤ 7", "unit": "days"}, {"measurement": "Resolution of symptoms and normal movements observed at", "setting": "[2]; [7]", "result": 5, "unit": "days"}, {"measurement": "30 minutes blood glucose levels on average less than before treatment", "setting": "[3]; [8]", "result": "approximately 24%"}, {"measurement": "60 minute GTT on average less than without treatment", "setting": "[3]; [8]", "result": 42, "unit": "%"}, {"measurement": "Glucose tolerance (in words)", "setting": "[3]; 4 weeks prior to ipGTT testing, versus same subjects before treatment", "result": "improved glucose tolerance"}, {"measurement": "Decrease of 30 minute ipGTT blood glucose versus before treatment", "setting": "[3]; [9]", "result": "29% and 22% (2×) and 25%"}, {"measurement": "Decrease of 60 minute ipGTT blood glucose versus before treatment", "setting": "[3]; [9]", "result": "42% and 39% and 41% and 46%"}, {"measurement": "Blood glucose at 30 minutes in ipGTT", "setting": "[3]; [10]", "result": "269 mg/dL and 292 mg/dL and 278 mg/dL and 304 mg/dL"}, {"measurement": "Blood glucose at 60 minutes in ipGTT", "setting": "[3]; [10]", "result": "152 mg/dL and 164 mg/dL and 145 mg/dL and 147 mg/dL"}, {"measurement": "Dose of glargine insulin decreased to", "setting": "[4]; #2 Cat, from 3 u. bid, secondary to low morning blood glucose", "result": 2, "unit": "units"}, {"measurement": "Morning blood glucose levels (prior to feeding) during treatment", "setting": "[4]; individual diabetic cats #1-#5 on glargine insulin, 1.25 mg donepezil orally daily, 14 day period", "result": "88 to 113 mg/dL and 105 to 128 mg/dL and 96 to 117 mg/dL"}]}]}
